# Data as given in patent publication US10245261B2, “Substituted indol-5-ol derivatives and their therapeutic applications” (NantBioScience, Inc., priority 2013, dated 2019).
# Key:
# Assay in all cases: KinaseProfiler kinase assay
# Format in all cases: biochemical
# LOK(h) = LOK(h) (Homo sapiens, UniProt O94804)
# In short: (§1)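 Each enzyme was assayed radiometrically: 40 min room-temperature reaction with [γ-33P]ATP and 10 mM Mg acetate, acid-stopped, filtered, scintillation-counted.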
# Tie2(R849W)(h) = Tie2(R849W)(h) (Homo sapiens, UniProt Q02763, R849W)
# In short: as §1
# p70S6K(h) = p70S6K(h) (Homo sapiens, UniProt P23443)
# In short: as §1
# Tie2 (h) = Tie2 (h) (Homo sapiens, UniProt Q02763)
# In short: as §1
# cKit(D816H)(h) = cKit(D816H)(h) (Homo sapiens, UniProt P10721, D816H)
# In short: as §1
# TAO3(h) = TAO3(h) (Homo sapiens, UniProt Q9H2K8)
# Sequence of TAO3(h) (Q9H2K8 whole entry): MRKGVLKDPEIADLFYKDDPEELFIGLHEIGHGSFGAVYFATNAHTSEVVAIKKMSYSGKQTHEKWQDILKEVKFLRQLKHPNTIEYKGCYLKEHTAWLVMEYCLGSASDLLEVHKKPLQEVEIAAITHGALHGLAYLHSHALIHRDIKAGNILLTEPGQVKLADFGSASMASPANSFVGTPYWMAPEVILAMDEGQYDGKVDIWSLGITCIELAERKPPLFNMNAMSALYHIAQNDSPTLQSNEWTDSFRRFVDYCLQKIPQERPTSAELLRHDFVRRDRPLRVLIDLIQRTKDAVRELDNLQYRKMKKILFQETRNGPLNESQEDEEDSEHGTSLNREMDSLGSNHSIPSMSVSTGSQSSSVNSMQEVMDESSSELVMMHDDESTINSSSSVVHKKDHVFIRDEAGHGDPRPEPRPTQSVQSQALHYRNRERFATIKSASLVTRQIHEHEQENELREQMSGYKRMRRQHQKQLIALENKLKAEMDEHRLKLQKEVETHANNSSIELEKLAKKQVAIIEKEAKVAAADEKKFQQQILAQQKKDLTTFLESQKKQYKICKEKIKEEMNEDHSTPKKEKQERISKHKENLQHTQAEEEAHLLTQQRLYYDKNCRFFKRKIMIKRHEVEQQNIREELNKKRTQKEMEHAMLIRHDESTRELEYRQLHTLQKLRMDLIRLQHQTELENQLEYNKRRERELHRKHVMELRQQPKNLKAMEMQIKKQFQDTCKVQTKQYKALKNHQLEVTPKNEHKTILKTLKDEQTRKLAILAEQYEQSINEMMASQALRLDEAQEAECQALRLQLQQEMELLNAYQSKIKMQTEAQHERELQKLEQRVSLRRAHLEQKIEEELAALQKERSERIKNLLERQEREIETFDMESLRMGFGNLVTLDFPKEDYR
# In short: as §1
# CK1γ3(h) = CK1γ3(h) (Homo sapiens, UniProt Q9Y6M4)
# In short: as §1
# PAK5(h) = PAK5(h) (Homo sapiens, UniProt Q9P286)
# In short: as §1
# PAR-1Bα(h) = PAR-1Bα(h) (Homo sapiens, UniProt Q7KZI7)
# In short: as §1
# [1] = target: PI3 Kinase (p110α/p65α)(h) (Homo sapiens, UniProt P42336)
# In short: as §1
# DCAMKL2(h) = DCAMKL2(h) (Homo sapiens, UniProt Q8N568)
# Sequence of DCAMKL2(h) (Q8N568 whole entry): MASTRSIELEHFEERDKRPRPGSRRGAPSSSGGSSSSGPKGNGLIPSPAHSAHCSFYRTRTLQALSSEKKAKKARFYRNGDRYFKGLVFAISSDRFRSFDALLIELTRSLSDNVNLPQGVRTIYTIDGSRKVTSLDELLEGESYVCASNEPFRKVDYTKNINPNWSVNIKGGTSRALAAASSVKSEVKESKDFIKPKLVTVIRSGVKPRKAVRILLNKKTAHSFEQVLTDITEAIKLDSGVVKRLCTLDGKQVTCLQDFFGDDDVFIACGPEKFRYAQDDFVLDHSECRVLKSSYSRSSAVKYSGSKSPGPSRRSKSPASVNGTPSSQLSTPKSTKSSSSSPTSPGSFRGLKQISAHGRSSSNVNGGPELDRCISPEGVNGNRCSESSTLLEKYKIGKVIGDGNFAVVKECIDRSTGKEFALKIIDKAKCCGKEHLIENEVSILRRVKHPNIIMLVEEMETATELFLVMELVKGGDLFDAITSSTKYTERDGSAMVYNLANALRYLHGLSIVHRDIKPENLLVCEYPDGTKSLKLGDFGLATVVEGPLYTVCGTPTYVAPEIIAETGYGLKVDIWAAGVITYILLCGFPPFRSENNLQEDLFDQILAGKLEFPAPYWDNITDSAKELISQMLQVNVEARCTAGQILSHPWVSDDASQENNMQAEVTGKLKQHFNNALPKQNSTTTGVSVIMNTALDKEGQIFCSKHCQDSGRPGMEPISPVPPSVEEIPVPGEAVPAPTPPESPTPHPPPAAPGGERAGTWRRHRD
# In short: as §1
# SGK3(h) = SGK3(h) (Homo sapiens, UniProt Q96BR1)
# In short: as §1
# NEK3(h) = NEK3(h) (Homo sapiens, UniProt P51956)
# Sequence of NEK3(h) (P51956 whole entry): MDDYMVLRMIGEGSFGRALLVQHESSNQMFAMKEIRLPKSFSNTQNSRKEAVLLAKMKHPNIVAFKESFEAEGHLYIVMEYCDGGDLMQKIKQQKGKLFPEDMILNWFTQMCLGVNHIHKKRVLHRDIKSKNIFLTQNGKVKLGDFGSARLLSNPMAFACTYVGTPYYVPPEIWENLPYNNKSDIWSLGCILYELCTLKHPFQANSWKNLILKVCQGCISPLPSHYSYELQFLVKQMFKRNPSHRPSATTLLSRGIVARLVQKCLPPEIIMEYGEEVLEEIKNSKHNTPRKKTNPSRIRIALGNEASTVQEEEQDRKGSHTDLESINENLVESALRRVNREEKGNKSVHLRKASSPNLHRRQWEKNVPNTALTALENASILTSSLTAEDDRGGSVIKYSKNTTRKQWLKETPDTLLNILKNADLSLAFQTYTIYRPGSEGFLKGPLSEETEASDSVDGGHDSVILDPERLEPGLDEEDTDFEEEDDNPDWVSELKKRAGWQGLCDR
# In short: as §1
# BTK(R28H)(h) = BTK(R28H)(h) (Homo sapiens, UniProt Q06187, R28H)
# In short: as §1
# Fms(h) = Fms(h) (Homo sapiens, UniProt P07333)
# In short: as §1
# ErbB4(h) = ErbB4(h) (Homo sapiens, UniProt Q15303)
# In short: as §1
# SRPK1(h) = SRPK1(h) (Homo sapiens, UniProt Q96SB4)
# Sequence of SRPK1(h) (Q96SB4 whole entry): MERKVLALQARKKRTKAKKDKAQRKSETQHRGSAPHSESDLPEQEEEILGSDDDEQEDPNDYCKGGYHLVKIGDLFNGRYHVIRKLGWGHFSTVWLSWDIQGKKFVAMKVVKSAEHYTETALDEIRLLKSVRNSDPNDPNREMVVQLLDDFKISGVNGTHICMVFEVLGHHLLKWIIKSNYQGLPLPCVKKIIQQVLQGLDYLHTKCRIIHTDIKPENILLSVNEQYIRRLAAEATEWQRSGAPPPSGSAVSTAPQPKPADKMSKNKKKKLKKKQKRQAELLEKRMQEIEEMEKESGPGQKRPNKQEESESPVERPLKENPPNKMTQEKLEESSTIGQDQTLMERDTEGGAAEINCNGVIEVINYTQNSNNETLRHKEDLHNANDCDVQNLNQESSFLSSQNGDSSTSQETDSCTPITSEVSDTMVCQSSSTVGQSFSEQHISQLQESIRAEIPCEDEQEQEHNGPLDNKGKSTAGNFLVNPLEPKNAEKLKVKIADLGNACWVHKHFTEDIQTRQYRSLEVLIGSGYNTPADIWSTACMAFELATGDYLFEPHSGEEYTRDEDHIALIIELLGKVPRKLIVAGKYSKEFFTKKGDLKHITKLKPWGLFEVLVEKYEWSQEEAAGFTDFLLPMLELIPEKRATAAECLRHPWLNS
# In short: as §1
# Pim-2(h) = Pim-2(h) (Homo sapiens, UniProt Q9P1W9)
# In short: as §1
# TLK2(h) = TLK2(h) (Homo sapiens, UniProt Q86UE8)
# In short: as §1
# Met(Y1248C)(h) = Met(Y1248C)(h) (Homo sapiens, UniProt P08581, Y1230C)
# In short: as §1
# MRCKβ(h) = MRCKβ(h) (Homo sapiens, UniProt Q9Y5S2)
# In short: as §1
# SAPK2a(T106M)(h) = SAPK2a(T106M)(h) (Homo sapiens, UniProt Q16539, T106M)
# In short: as §1
# Met(D1246H)(h) = Met(D1246H)(h) (Homo sapiens, UniProt P08581, D1228H)
# In short: as §1
# PKD2(h) = PKD2(h) (Homo sapiens, UniProt Q9BZL6)
# In short: as §1
# Fyn(h) = Fyn(h) (Homo sapiens, UniProt P06241)
# Sequence of Fyn(h) (P06241 whole entry): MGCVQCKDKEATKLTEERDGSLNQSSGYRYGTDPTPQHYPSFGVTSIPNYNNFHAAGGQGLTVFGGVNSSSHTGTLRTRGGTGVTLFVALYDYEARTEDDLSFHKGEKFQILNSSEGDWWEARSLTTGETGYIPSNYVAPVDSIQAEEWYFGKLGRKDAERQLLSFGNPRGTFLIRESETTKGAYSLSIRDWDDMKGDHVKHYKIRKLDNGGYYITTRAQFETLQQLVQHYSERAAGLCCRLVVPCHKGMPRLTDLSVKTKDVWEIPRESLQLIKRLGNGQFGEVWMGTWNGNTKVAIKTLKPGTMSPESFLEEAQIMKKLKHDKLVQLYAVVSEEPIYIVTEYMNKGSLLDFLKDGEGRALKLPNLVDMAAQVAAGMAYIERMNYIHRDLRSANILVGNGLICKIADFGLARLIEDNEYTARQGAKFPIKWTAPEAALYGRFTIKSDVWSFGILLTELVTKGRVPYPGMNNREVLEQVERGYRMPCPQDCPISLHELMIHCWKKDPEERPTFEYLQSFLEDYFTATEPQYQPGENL
# In short: as §1
# MKK6(h) = MKK6(h) (Homo sapiens, UniProt P52564)
# In short: as §1
# EGFR(h) = EGFR(h) (Homo sapiens, UniProt P00533)
# Sequence of EGFR(h) (P00533 25-1210): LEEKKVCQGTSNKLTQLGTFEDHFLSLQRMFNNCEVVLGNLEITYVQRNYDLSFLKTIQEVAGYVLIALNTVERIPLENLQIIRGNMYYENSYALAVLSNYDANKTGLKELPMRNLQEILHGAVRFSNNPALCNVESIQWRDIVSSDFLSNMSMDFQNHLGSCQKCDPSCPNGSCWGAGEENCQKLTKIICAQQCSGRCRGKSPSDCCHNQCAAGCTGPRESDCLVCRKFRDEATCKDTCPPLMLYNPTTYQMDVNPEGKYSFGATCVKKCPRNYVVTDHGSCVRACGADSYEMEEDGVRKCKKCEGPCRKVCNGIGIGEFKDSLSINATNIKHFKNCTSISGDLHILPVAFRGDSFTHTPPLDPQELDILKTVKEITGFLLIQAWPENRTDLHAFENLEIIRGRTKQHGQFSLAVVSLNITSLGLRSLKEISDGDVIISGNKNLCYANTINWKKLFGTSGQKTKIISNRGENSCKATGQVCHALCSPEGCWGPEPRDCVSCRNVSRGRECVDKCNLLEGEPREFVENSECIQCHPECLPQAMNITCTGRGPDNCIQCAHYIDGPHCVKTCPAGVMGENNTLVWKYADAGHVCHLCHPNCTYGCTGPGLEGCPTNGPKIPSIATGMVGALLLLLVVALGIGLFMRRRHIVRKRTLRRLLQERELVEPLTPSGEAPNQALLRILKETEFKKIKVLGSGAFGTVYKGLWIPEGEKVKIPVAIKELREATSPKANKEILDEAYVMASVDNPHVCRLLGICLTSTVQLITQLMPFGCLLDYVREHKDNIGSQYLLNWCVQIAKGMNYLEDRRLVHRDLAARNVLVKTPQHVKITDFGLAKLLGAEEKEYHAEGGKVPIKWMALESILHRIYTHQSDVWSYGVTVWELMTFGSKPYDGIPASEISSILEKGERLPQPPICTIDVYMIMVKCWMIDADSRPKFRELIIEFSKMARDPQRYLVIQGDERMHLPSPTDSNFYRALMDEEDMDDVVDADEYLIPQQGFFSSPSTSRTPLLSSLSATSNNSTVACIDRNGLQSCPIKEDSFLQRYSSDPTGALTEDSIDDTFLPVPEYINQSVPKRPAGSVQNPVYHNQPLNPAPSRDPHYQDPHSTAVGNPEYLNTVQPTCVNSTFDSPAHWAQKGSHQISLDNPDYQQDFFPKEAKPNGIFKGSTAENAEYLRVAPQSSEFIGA
# In short: as §1
# CK1γ2(h) = CK1γ2(h) (Homo sapiens, UniProt P78368)
# Sequence of CK1γ2(h) (P78368 whole entry): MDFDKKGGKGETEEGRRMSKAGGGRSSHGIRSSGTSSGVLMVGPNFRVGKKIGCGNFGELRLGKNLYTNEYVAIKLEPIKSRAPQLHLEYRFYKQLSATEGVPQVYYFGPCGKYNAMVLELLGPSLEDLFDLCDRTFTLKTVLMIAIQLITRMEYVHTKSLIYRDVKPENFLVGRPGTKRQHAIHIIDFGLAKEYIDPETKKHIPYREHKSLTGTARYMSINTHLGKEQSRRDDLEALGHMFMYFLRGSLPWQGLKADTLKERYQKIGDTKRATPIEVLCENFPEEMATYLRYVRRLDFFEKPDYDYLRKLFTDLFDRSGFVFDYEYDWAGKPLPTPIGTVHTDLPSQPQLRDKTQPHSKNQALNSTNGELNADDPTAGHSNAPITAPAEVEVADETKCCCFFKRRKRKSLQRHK
# In short: as §1
# SAPK2b(h) = SAPK2b(h) (Homo sapiens, UniProt Q15759)
# In short: as §1
# Met(M1268T)(h) = Met(M1268T)(h) (Homo sapiens, UniProt P08581, M1250T)
# In short: as §1
# Lck(h) activated = Lck(h) activated (Homo sapiens, UniProt P06239)
# In short: as §1
SMILES,inhibition at 0.1 µM (LOK(h)) [%],inhibition at 0.1 µM (Tie2(R849W)(h)) [%],inhibition at 0.1 µM (p70S6K(h)) [%],inhibition at 0.1 µM (Tie2 (h)) [%],inhibition at 0.1 µM (cKit(D816H)(h)) [%],inhibition at 0.1 µM (TAO3(h)) [%],inhibition at 0.1 µM (CK1γ3(h)) [%],inhibition at 0.1 µM (PAK5(h)) [%],inhibition at 0.1 µM (PAR-1Bα(h)) [%],inhibition at 0.1 µM [1] [%],inhibition at 0.1 µM (DCAMKL2(h)) [%],inhibition at 0.1 µM (SGK3(h)) [%],inhibition at 0.1 µM (NEK3(h)) [%],inhibition at 0.1 µM (BTK(R28H)(h)) [%],inhibition at 0.1 µM (Fms(h)) [%],inhibition at 0.1 µM (ErbB4(h)) [%],inhibition at 0.1 µM (SRPK1(h)) [%],inhibition at 0.1 µM (Pim-2(h)) [%],inhibition at 0.1 µM (TLK2(h)) [%],inhibition at 0.1 µM (Met(Y1248C)(h)) [%],further results
Cc1cc2c(F)c(Oc3nc(Nc4cc(C5CC5)[nH]n4)cc(N4CCN(C)CC4)n3)ccc2[nH]1 [Compound 10],73,88,-10,100,86,20,-12,60,75,-6,16,-5,18,10,91,13,-11,-25,69,57,inhibition at 0.1 µM (MRCKβ(h)): -6%; inhibition at 0.1 µM (SAPK2a(T106M)(h)): 2%; inhibition at 0.1 µM (Met(D1246H)(h)): 74%; inhibition at 0.1 µM (PKD2(h)): -5%; inhibition at 0.1 µM (Fyn(h)): 102%; inhibition at 0.1 µM (MKK6(h)): -5%; inhibition at 0.1 µM (EGFR(h)): -8%; inhibition at 0.1 µM (CK1γ2(h)): -20%; inhibition at 0.1 µM (SAPK2b(h)): -2%; inhibition at 0.1 µM (Met(M1268T)(h)): 91%; inhibition at 0.1 µM (Lck(h) activated): 97%
"Cc1cc2c(F)c(Oc3nc(Nc4cc(C5CC5)[nH]n4)cc(N4CCNCC4)n3)ccc2[nH]1 [Compound 11, N-(5-cyclopropyl-1H-pyrazol-3-yl)-2-((4-fluoro-2-methyl-1H-indol-5-yl)oxy)-6-(piperazin-1-yl)pyrimidin-4-amine]",86,93,2,98,91,8,-9,68,66,-1,15,4,16,-7,95,-5,-14,17,70,95,inhibition at 0.1 µM (MRCKβ(h)): -16%; inhibition at 0.1 µM (SAPK2a(T106M)(h)): 3%; inhibition at 0.1 µM (Met(D1246H)(h)): 93%; inhibition at 0.1 µM (PKD2(h)): -1%; inhibition at 0.1 µM (Fyn(h)): 99%; inhibition at 0.1 µM (MKK6(h)): -13%; inhibition at 0.1 µM (EGFR(h)): -6%; inhibition at 0.1 µM (CK1γ2(h)): -16%; inhibition at 0.1 µM (SAPK2b(h)): -6%; inhibition at 0.1 µM (Met(M1268T)(h)): 72%; inhibition at 0.1 µM (Lck(h) activated): 100%
